Data on one compound can be found in patent US20240335466A1, “NICOTINAMIDE MONONUCLEOTIDE DERIVATIVES FOR USE IN THE TREATMENT OF SAPHO SYNDROME” (NUVAMID SA, priority 2021, published 2024).

Assay [1] has as its system patient suffering from SAPHO syndrome. Briefly: Case report: oral NMN in a patient with SAPHO syndrome, BASDAI self-assessment questionnaire. The format is in vivo, human. To be noted: one patient. The method, then: (§1) This case report investigated the effects of nicotinamide mononucleotide derivatives according to the invention in a patient suffering from SAPHO syndrome. Especially, the effects of nicotinamide mononucleotide (NMN), i.e. compound 001, were investigated. NMN was orally administered at a dose of 500 mg/day, once a day in the morning, for 12 months. The patient reported that SAPHO syndrome manifested with osteitis in the upper right chest area managed with NSAIDs. At the start of the treatment, the patient reported strong pain and swelling (7.5/10) in joints affected by the disease. The patient also suffered from fatigue. In the absence of SAPHO syndrome specific questionnaire, efficacy of the treatment was assessed using self-assessment questionnaires: the Bath Ankylosing Spondylitis Disease Activity Index (BASDAI) which is the gold standard for measuring and following disease activity in Ankylosing Spondylitis, and the Bath Ankylosing Spondylitis Functional Index (BAFSI) for measuring and monitoring functional ability in patients with ankylosing spondylitis. […] Evaluation was performed before start of the treatment, and after 12 months of treatment.

The test system is the same in assay [2]. The assay is described as follows: Case report: oral NMN in a patient with SAPHO syndrome, BASFI self-assessment questionnaire. It is filed as in vivo, human. The following applies: one patient. The method, then: as §1

`NC(=O)c1ccc[n+]([C@@H]2O[C@H](COP(=O)([O-])O)[C@@H](O)[C@H]2O)c1` [NMN, nicotinamide mononucleotide]: in assay [1] (500 mg/day oral once a day, after 12 months, before NMN: 5.4, scores of 4 or greater suggest suboptimal control of disease), the “BASDAI score after NMN” value stood at 3. Moreover, the “effect on fatigue, pain and swelling of the joints and discomfort (BASDAI items)” value in assay [1] (500 mg/day oral, 12 months, before: pain and swelling 7.5/10, fatigue 6.5/10, discomfort 6.5/10) is “significantly improved fatigue, pain and swelling of the joints and discomfort”. Moreover, the “BASFI score after NMN” value in assay [2] (500 mg/day oral once a day, after 12 months, before NMN: 2.4) was 2.1. In addition, in assay [2] (500 mg/day oral, after one year treatment, before treatment 7/10), the “BASFI item: physically demanding activities, score” value is recorded as 4.5 /10.
